Source: ChEMBL document CHEMBL3596165, “Synthesis, structure elucidation and identification of antiproliferative activities of a novel class of thiophene bioisosteres bearing the privileged 7,8-dihydroimidazo[2,1-c][1,2,4]triazin-4(6H)-one scaffold” (Bioorg Med Chem, 2015)

Legend:
[1] = tested on: HeLa; test: Antiproliferative activity against human HeLa cells after 48 hrs by BrdUrd incorporation assay; type: functional, cell-based
[2] = tested on: Vero; test: Antiproliferative activity against African green monkey Vero cells after 24 hrs by BrdUrd incorporation assay; type: cell-based; settings: chlorocebus sabaeus
[3] = tested on: A549; test: Antiproliferative activity against human A549 cells after 48 hrs by BrdUrd incorporation assay; type: functional, cell-based; settings: A549, 48 h
[4] = tested on: TOV112D; test: Antiproliferative activity against human TOV112D cells at 50 ug/ml after 72 hrs by BrdUrd incorporation assay; type: functional; settings: read-out: GI
[5] = Antiproliferative activity against African green monkey Vero cells at 50 ug/ml after 48 hrs by BrdUrd incorporation assay; type: cell-based; settings: chlorocebus sabaeus, read-out: GI
[6] = tested on: Vero; test: Antiproliferative activity against African green monkey Vero cells after 48 hrs by BrdUrd incorporation assay; type: cell-based; settings: Chlorocebus sabaeus
[7] = tested on: T47D; test: Antiproliferative activity against human T47D cells after 24 hrs by BrdUrd incorporation assay; type: functional, cell-based
[8] = tested on: A549; test: Antiproliferative activity against human A549 cells at 50 ug/ml after 24 hrs by BrdUrd incorporation assay; type: functional; settings: A549, 24 h, read-out: GI
[9] = tested on: TOV112D; test: Antiproliferative activity against human TOV112D cells after 72 hrs by BrdUrd incorporation assay; type: functional, cell-based
[10] = tested on: TOV112D; test: Antiproliferative activity against human TOV112D cells at 50 ug/ml after 24 hrs by BrdUrd incorporation assay; type: functional; settings: read-out: GI
[11] = tested on: TOV112D; test: Antiproliferative activity against human TOV112D cells at 50 ug/ml after 48 hrs by BrdUrd incorporation assay; type: functional; settings: read-out: GI
[12] = tested on: HeLa; test: Antiproliferative activity against human HeLa cells at 50 ug/ml after 24 hrs by BrdUrd incorporation assay; type: functional; settings: read-out: GI
[13] = tested on: A549; test: Antiproliferative activity against human A549 cells after 72 hrs by BrdUrd incorporation assay; type: functional, cell-based; settings: A549, 72 h
[14] = tested on: TOV112D; test: Antiproliferative activity against human TOV112D cells after 48 hrs by BrdUrd incorporation assay; type: functional, cell-based
[15] = tested on: T47D; test: Antiproliferative activity against human T47D cells at 50 ug/ml after 72 hrs by BrdUrd incorporation assay; type: functional; settings: read-out: GI
[16] = tested on: TOV112D; test: Antiproliferative activity against human TOV112D cells after 24 hrs by BrdUrd incorporation assay; type: functional, cell-based
[17] = tested on: Vero; test: Antiproliferative activity against African green monkey Vero cells at 50 ug/ml after 24 hrs by BrdUrd incorporation assay; type: cell-based; settings: chlorocebus sabaeus
[18] = tested on: T47D; test: Antiproliferative activity against human T47D cells at 50 ug/ml after 24 hrs by BrdUrd incorporation assay; type: functional; settings: read-out: GI
[19] = tested on: Vero; test: Antiproliferative activity against African green monkey Vero cells after 72 hrs by BrdUrd incorporation assay; type: cell-based; settings: Chlorocebus sabaeus
[20] = tested on: HeLa; test: Antiproliferative activity against human HeLa cells at 50 ug/ml after 48 hrs by BrdUrd incorporation assay; type: functional; settings: read-out: GI
[21] = tested on: HeLa; test: Antiproliferative activity against human HeLa cells after 24 hrs by BrdUrd incorporation assay; type: functional, cell-based
[22] = tested on: HeLa; test: Antiproliferative activity against human HeLa cells at 50 ug/ml after 72 hrs by BrdUrd incorporation assay; type: functional; settings: read-out: GI
[23] = tested on: T47D; test: Antiproliferative activity against human T47D cells after 72 hrs by BrdUrd incorporation assay; type: functional, cell-based
[24] = tested on: HeLa; test: Antiproliferative activity against human HeLa cells after 72 hrs by BrdUrd incorporation assay; type: functional, cell-based
[25] = Antiproliferative activity against African green monkey Vero cells at 50 ug/ml after 72 hrs by BrdUrd incorporation assay; type: cell-based; settings: chlorocebus sabaeus, read-out: GI
[26] = tested on: A549; test: Antiproliferative activity against human A549 cells after 24 hrs by BrdUrd incorporation assay; type: functional, cell-based; settings: A549, 24 h
[27] = tested on: T47D; test: Antiproliferative activity against human T47D cells after 48 hrs by BrdUrd incorporation assay; type: functional, cell-based
[28] = tested on: T47D; test: Antiproliferative activity against human T47D cells at 50 ug/ml after 48 hrs by BrdUrd incorporation assay; type: functional; settings: read-out: GI
[29] = tested on: A549; test: Antiproliferative activity against human A549 cells at 50 ug/ml after 72 hrs by BrdUrd incorporation assay; type: functional; settings: A549, 72 h, read-out: GI
[30] = tested on: A549; test: Antiproliferative activity against human A549 cells at 50 ug/ml after 48 hrs by BrdUrd incorporation assay; type: functional; settings: A549, 48 h, read-out: GI

IC50 [1] | IC50 [3] | IC50 [7] | IC50 [13] | Structure (SMILES) | IC50 [2] | inhibition of growth at 50 µg/mL [4] | inhibition at 48 h, 50 ug/ml [5] | IC50 [6] | inhibition of growth at 50 µg/mL [8] | IC50 [9] | inhibition of growth at 50 µg/mL [10] | inhibition of growth at 50 µg/mL [11] | inhibition of growth at 50 µg/mL [12] | IC50 [14] | inhibition of growth at 50 µg/mL [15] | IC50 [16] | growth inhibition (GI) [17] | inhibition of growth at 50 µg/mL [18] | IC50 [19] | inhibition of growth at 50 µg/mL [20] | other results
80 µM | 80 µM | 80 µM | 80 µM | O=c1c(-c2cccs2)nnc2n1CCN2c1ccc(Cl)cc1 | > 150 µM | 100% | 60% | 130 µM | 80% | 80 µM | 75% | 90% | 50% | 80 µM | 100% | 100 µM | 25% | 90% | 80 µM | 90% | IC50 [21]: 150 µM; inhibition of growth at 50 µg/mL [22]: 100%; IC50 [23]: 80 µM; IC50 [24]: 80 µM; inhibition at 72 h, 50 ug/ml [25]: 90%; IC50 [26]: 90 µM; IC50 [27]: 80 µM; inhibition of growth at 50 µg/mL [28]: 100%; inhibition of growth at 50 µg/mL [29]: 100%; inhibition of growth at 50 µg/mL [30]: 90%
130 µM | 100 µM | 100 µM | 80 µM | COc1ccccc1N1CCn2c1nnc(-c1cccs1)c2=O | 150 µM | 90% | 75% | 100 µM | 70% | 80 µM | 75% | 80% | 50% | 100 µM | 95% | 100 µM | 50% | 80% | 90 µM | 60% | IC50 [21]: 150 µM; inhibition of growth at 50 µg/mL [22]: 80%; IC50 [23]: 80 µM; IC50 [24]: 100 µM; inhibition at 72 h, 50 ug/ml [25]: 90%; IC50 [26]: 110 µM; IC50 [27]: 90 µM; inhibition of growth at 50 µg/mL [28]: 90%; inhibition of growth at 50 µg/mL [29]: 90%; inhibition of growth at 50 µg/mL [30]: 80%
